From patent publication US4902720A (priority 1988, dated 1990)
Like-named read-outs stand apart in the source and are kept apart here.

Columns and labels:
[1] = test system: HSV-1 (F strain); details: for % plaque inhibition: drug added after inoculation; for appearance of cell layer / % plaque inhibition A: Exp. 1D; for appearance of cell layer: after virus adsorption, thin = attached but monolayer not confluent; for % plaque inhibition A: drug added after virus adsorption
[2] = test system: HSV-2
Protocol: Female guinea pigs (obtained from Charles River, Inc.) weighing approximately 200 g were used as a model for HSV-2 skin lesions. The animals were anesthetized with 0.15 ml of Ketamine-Rompum mixture. The animals were first shaved on their back with a hair clipper and then treated with a depilatory cream (Nair). The denuded area was washed well and then dried. A tuberculin tyne was washed with ethanol and air dried.
Two methods were tried for infecting the animals with the virus. In one, a drop of HSV-2 suspension was placed on the skin and the skin was punctured with the tyne. In the second method, the tyne was dipped in the virus suspension before puncturing the skin.
In the first experiment, each of 3 guinea pigs was infected on three areas of their backs. At 3 days post infection, treatment was begun on one side of each animal, leaving the other side untreated as a control.
The animals were examined daily for vesicles (V), crust (C) and for erythema (R) alone.
In the next experiment, 6 guinea pigs were infected in the same manner as the initial 3 guinea pigs. Treatment was begun 12-16 hours post infection. […] Lesions showing an erythematous base with either a blister or a crust on top were considered to be HSV specific. […] Both the control animals and treated animals were carefully read in the same manner.

[3] = test system: Vero and WISH cells
[4] = test system: herpes simplex virus (HSV types 1 and 2)
[5] = test system: HSV-1 (McKrae strain)
[6] = test system: RK-13, Vero cells, and WISH cells; details: cultures with vs without TEAC
Protocol: To determine the toxicity level of the drug, all three cell lines--RK-13, Vero cells, and WISH cells--were used. In the toxicity experiments, the effect of the drug on the uninfected cell for a range of periods of time was determined. Accordingly, cultures were incubated with and without the drug. The time of exposure was from one to seven hours. A comparison was then made between the drug treated cultures and the control cultures. After each period of incubation, the cells were washed and fresh media was added to the cells. The cell viability was then determined by dividing these cultures and having them grow into new cell cultures.

[7] = test system: HSV-1 (McKrae strain); details: 20 mg/ml
Protocol: In experiment 1K, cultures were infected with the McKrae strain of HSV-1 at a high multiplicity of infection. […] At designated times, the cultures were harvested. The supernatant fluid and the cells were kept separate to assay for viruses released in the supernatant fluid and also that present in the cells. Both supernatant fluid and the cells were frozen immediately at -85° C. These samples were then assayed for infectious particles on susceptible cells.

CC[N+](CC)(CC)CC.[Cl-] [TEAC, tetraethylammonium chloride]
antiviral activity ([1]; Exp. 1C, all dilutions tested): Antiviral activity was seen in all dilutions tested
% plaque inhibition ([1]; Exp. 1C, 0.62 mg/culture): 30%
% plaque inhibition ([1]; Exp. 1C, 1.25 mg/culture): 39%
% plaque inhibition ([1]; Exp. 1C, 2.50 mg/culture): 46%
% plaque inhibition ([1]; Exp. 1C, 5.00 mg/culture): 45%
% plaque inhibition ([1]; Exp. 1C, 10.00 mg/culture): 56%
appearance of cell layer ([1]; 25 mg/culture): thin
appearance of cell layer ([1]; 50 mg/culture): thin
% plaque inhibition A ([1]; 6.2 mg/culture): 20%
% plaque inhibition A ([1]; 12.5 mg/culture): 62%
% plaque inhibition A ([1]; 25.0 mg/culture, cell layer thin): 100%
% plaque inhibition A ([1]; 50.0 mg/culture, cell layer thin): 100%
number and size of lesions ([2]; TEAC from 12-16 hours P.I.): significant reduction in the number of lesions, but also in their size
rupture and crusting of lesions ([2]; TEAC from 12-16 hours P.I.): the lesions neither ruptured nor crusted
number and appearance of lesions, treated vs control ([2]; TEAC ointment from 12-16 hours P.I.): marked difference between the two groups, not only in the number of lesions but also in their appearance
Percent Reduction of lesions ([2]; TEAC ointment from 12-16 hours P.I., day 3 P.I.): 21.0%
# of lesions ([2]; TEAC ointment from 12-16 hours P.I., day 3 P.I., control 19): 15 lesions
Percent Reduction of lesions ([2]; TEAC ointment from 12-16 hours P.I., day 4 P.I.): 27.5%
# of lesions ([2]; TEAC ointment from 12-16 hours P.I., day 4 P.I., control 40): 29 lesions
Percent Reduction of lesions ([2]; TEAC ointment from 12-16 hours P.I., day 5 P.I.): 58.5%
# of lesions ([2]; TEAC ointment from 12-16 hours P.I., day 5 P.I., control 41): 17 lesions
Percent Reduction of lesions ([2]; TEAC ointment from 12-16 hours P.I., day 6 P.I.): 58.3%
# of lesions ([2]; TEAC ointment from 12-16 hours P.I., day 6 P.I., control 36): 15 lesions
dermatitis (rash) ([2]; day 4 after treatment, TEAC or its vehicle or both): a rash appeared
change in the morphology of the cells ([3]; 5 mg, 2.5 mg and 1.25 mg TEAC per culture, overnight): No change in the morphology of the cells
growth or general appearance vs untreated controls ([3]; after wash, additional 24 hours in fresh medium): no apparent difference in the growth or general appearance
attacks ([4]; Patient B, about a month after report on fourth infusion): no more attacks
recurrences ([4]; Patient B, after third infusion): recurrences were not eliminated
resolution of oral lesions ([4]; Patient B, first infusion 3.7 cc (5 mg/kg)): resolution occurring in a shorter than usual time
value of last treatment ([4]; Patient B, fourth infusion 4.8 cc): of no value
aura and expected labial lesion ([4]; Patient B, second infusion 3.7 cc, following day): absence of an aura and no occurrence of the expected lesion except for a very small lesion at the corner of the mouth
time to disappearance of penile lesion ([4]; Patient B, third infusion 4.5 cc): 2 to 3 days
long term outcome ([4]; Patient C, five months and ten months after initial treatment): no further problems
infection ([4]; Patient I, first infusion 4.7 cc, four to five days later): they were all clear
time to clearing of lesion ([4]; Patient I, second infusion 4.75 cc (5.5 mg/kg)): 3 days
nocturnal headaches ([4]; Patient I, three months after second infusion): no further nocturnal headaches
drug related effects (Patient A, 2.8 cc infusion): some blurred vision and slight dizziness on rising to the seated position
drug related effects (Patient A, 3.2 cc infusion): some blurred vision
drug related effects (Patient B, 3.7 cc (5 mg/kg) infusion): blurred vision, dryness of the mouth, and unsteady gait
time to cessation of drug related effects (Patient B, after cessation of infusion): 10 to 15 min
drug related effects (Patient C, 3.85 cc (5 mg/kg)): slightly blurred vision
drug related effects (Patient D, 2.8 cc (5 mg/kg)): dry mouth and transient blurred vision
drug related effects (Patient E, 4.8 cc (5 mg/kg)): slightly blurred vision
drug related effects (Patient J, 3.6 cc (5.5 mg/kg)): some blurred vision
drug related effects (Patient K, 3.1 cc and 3.4 cc): some blurred vision
drug related effects (Patient L, 2.9 cc (5.5 mg/kg)): some blurred vision
time patient felt badly following treatment (Patient L, 2.9 cc (5.5 mg/kg)): 24 to 36 h
number of cells containing intranuclear dense bodies vs control ([5]; 6 hours post infection): no striking difference
No. of cells with internuclear dense bodies ([5]; TEAC treated, 24 hours P.I., 300 cells examined, control 0 of 50): 12
No. of cells with virus particles ([5]; TEAC treated, 24 hours P.I., 300 cells examined, control 50 of 50): 8
Total % ([5]; TEAC treated, 24 hours P.I., control 100%): 6%
size of nucleocapsids ([5]; TEAC-treated cells, 24 hours post infection): about 99.6 A
rate of growth vs cultures without TEAC [6]: no difference in the rate of growth
virus yield, supernatant ([7]; 6 hours P.I., dilution 10^-1, control 3): 0 PFU/m
virus yield, cell ([7]; 6 hours P.I., dilution 10^-1, control 7): 2 PFU/m
virus yield, supernatant ([7]; 6 hours P.I., dilution 10^-2, control 1): 0 PFU/m
virus yield, cell ([7]; 6 hours P.I., dilution 10^-2, control 7): 5 PFU/m
virus yield, supernatant ([7]; 6 hours P.I., dilution 10^-3, control 0): 0 PFU/m
virus yield, cell ([7]; 6 hours P.I., undiluted (Und.), control 16): 12 PFU/m
virus yield, cell ([7]; 10 hours P.I., dilution 10^-1, control 12): 3 PFU/m
virus yield, supernatant ([7]; 10 hours P.I., dilution 10^-1, control 22): 0 PFU/m
virus yield, cell ([7]; 10 hours P.I., dilution 10^-2, control 2): 0 PFU/m
virus yield, supernatant ([7]; 10 hours P.I., dilution 10^-2, control 7): 0 PFU/m
virus yield, supernatant ([7]; 10 hours P.I., dilution 10^-3, control 0): 0 PFU/m
virus yield, cell ([7]; 10 hours P.I., undiluted (Und.), control 48): 13 PFU/m
virus yield, supernatant ([7]; 20 hours P.I., dilution 10^-1, control 91): 0 PFU/m
virus yield, cell ([7]; 20 hours P.I., dilution 10^-1, control W.O. (wiped out)): 5 PFU/m
virus yield, supernatant ([7]; 20 hours P.I., dilution 10^-2, control 10): 0 PFU/m
virus yield, cell ([7]; 20 hours P.I., dilution 10^-2, control W.O. (wiped out)): 0 PFU/m
virus yield, supernatant ([7]; 20 hours P.I., dilution 10^-3, control 0): 0 PFU/m
virus yield, cell ([7]; 20 hours P.I., undiluted (Und.), control W.O. (wiped out)): 42 PFU/m
virus yield, supernatant ([7]; 24 hours P.I., dilution 10^-1, control 107): 0 PFU/m
virus yield, cell ([7]; 24 hours P.I., dilution 10^-1, control W.O. (wiped out)): 32 PFU/m
virus yield, supernatant ([7]; 24 hours P.I., dilution 10^-2, control 18): 0 PFU/m
virus yield, cell ([7]; 24 hours P.I., dilution 10^-2, control W.O. (wiped out)): 10 PFU/m
virus yield, supernatant ([7]; 24 hours P.I., dilution 10^-3, control 2): 0 PFU/m
virus yield, cell ([7]; 24 hours P.I., undiluted (Und.), control W.O. (wiped out)): 58 PFU/m
virus yield, supernatant ([7]; 28 hours P.I., dilution 10^-1, control 190): 0 PFU/m
virus yield, cell ([7]; 28 hours P.I., dilution 10^-1, control W.O.): TMTC
virus yield, supernatant ([7]; 28 hours P.I., dilution 10^-2, control 58): 0 PFU/m
virus yield, cell ([7]; 28 hours P.I., dilution 10^-2, control W.O. (wiped out)): 15 PFU/m
virus yield, supernatant ([7]; 28 hours P.I., dilution 10^-3, control 7): 0 PFU/m
virus yield, cell ([7]; 28 hours P.I., undiluted (Und.), control W.O.): W.O.
